How the values were obtained:
EGFR del19/T790M/C797S = EGFR del19/T790M/C797S (Homo sapiens, UniProt P00533, C797S/DEL746-750/T790M); experiment: Biochemical EGFR kinase assay (Lance Ultra TR-FRET), triple mutant del19/T790M/C797S; conditions: Km ATP; read-out: IC50 del19/T790M/C797S (nM) Km ATP
Method in brief: (§1)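 Enzyme reactions lasted 1 hour at room temperature with test compounds between 0.003 and 10 μM, followed by 10 mM EDTA quench.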

EGFR del19/C797S = EGFR del19/C797S (Homo sapiens, UniProt P00533, C797S/DEL746-750); experiment: Biochemical EGFR kinase assay (Lance Ultra TR-FRET), double mutant del19/C797S; conditions: Km ATP; read-out: IC50 del19/C797S (nM) Km ATP
Method in brief: as §1

EGFR wildtype (WT) = EGFR wildtype (WT) (Homo sapiens, UniProt P00533); experiment: Biochemical EGFR kinase assay (Lance Ultra TR-FRET), wildtype; conditions: Km ATP; read-out: IC50 WT (nM) Km ATP
Method in brief: as §1

EGFR L858R/T790M/C797S = EGFR L858R/T790M/C797S (Homo sapiens, UniProt P00533, C797S/L858R/T790M); experiment: Biochemical EGFR kinase assay (Lance Ultra TR-FRET), triple mutant L858R/T790M/C797S; conditions: Km ATP; read-out: IC50 L858R/T790M/C797S (nM) Km ATP
Method in brief: as §1

EGFR L858R/C797S = EGFR L858R/C797S (Homo sapiens, UniProt P00533, C797S/L858R); experiment: Biochemical EGFR kinase assay (Lance Ultra TR-FRET), double mutant L858R/C797S; conditions: Km ATP; read-out: IC50 L858R/C797S (nM) Km ATP
Method in brief: as §1

EGFR wildtype (WT), sequence (P00533 25-1210): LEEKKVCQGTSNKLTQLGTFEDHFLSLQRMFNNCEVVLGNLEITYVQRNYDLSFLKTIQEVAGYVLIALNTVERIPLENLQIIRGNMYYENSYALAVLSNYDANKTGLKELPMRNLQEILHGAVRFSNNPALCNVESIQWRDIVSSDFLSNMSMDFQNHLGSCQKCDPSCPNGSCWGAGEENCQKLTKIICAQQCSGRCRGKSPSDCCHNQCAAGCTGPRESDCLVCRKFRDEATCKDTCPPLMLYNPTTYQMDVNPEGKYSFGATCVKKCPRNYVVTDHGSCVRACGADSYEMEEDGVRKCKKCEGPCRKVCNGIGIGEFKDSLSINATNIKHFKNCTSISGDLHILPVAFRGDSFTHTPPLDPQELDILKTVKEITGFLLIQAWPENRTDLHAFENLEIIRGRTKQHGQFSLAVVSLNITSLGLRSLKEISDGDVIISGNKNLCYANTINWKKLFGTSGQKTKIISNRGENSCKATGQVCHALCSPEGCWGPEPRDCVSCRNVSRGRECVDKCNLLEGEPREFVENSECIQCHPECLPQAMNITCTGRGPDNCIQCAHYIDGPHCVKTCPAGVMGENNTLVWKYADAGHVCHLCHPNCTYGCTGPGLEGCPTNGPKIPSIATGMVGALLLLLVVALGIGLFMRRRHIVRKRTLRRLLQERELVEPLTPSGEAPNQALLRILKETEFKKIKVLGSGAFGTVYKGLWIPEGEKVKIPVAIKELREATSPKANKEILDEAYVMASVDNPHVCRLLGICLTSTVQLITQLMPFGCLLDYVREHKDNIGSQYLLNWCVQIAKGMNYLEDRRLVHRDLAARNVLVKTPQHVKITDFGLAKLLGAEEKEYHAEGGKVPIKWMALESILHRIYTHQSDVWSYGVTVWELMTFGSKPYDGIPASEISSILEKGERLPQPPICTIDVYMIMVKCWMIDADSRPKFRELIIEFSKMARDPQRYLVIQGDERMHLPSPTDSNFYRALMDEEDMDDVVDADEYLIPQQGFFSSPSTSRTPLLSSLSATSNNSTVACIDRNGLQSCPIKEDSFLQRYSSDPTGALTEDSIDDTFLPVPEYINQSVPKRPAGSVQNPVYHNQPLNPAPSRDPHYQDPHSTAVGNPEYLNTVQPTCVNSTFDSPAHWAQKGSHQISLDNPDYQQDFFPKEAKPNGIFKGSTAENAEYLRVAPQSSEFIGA
EGFR del19/T790M/C797S, sequence (P00533 with tags, fused parts or gaps DEL746-750/T790M/C797S): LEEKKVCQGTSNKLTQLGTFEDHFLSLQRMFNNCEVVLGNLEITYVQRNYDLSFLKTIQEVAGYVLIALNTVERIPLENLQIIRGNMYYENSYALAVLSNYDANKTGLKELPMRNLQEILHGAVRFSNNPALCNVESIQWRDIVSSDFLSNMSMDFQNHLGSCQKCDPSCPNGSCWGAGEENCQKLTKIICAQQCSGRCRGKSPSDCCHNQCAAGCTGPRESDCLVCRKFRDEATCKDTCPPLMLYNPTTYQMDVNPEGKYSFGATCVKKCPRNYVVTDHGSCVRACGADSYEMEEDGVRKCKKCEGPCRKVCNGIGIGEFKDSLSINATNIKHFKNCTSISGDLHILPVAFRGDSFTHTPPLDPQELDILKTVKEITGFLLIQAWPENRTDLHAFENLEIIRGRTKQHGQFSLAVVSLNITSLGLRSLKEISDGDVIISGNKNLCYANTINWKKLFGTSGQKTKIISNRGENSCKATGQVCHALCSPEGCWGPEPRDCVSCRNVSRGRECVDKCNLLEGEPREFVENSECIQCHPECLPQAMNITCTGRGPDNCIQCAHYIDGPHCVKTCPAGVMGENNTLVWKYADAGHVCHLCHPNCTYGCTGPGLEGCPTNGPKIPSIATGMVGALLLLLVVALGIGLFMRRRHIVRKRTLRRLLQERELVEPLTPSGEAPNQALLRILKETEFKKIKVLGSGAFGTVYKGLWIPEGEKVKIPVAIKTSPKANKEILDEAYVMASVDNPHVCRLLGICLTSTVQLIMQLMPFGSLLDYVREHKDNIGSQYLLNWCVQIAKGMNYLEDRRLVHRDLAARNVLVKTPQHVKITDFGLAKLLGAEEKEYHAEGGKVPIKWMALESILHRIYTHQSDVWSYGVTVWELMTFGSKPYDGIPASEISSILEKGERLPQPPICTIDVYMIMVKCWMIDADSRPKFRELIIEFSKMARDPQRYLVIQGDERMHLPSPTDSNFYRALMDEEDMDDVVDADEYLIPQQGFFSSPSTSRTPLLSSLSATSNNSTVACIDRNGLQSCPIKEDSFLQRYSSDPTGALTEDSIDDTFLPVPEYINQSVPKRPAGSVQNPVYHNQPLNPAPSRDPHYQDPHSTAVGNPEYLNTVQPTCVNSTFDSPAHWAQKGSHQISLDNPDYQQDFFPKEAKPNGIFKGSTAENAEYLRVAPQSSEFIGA
EGFR L858R/T790M/C797S, sequence (P00533 25-1210 T790M/C797S/L858R): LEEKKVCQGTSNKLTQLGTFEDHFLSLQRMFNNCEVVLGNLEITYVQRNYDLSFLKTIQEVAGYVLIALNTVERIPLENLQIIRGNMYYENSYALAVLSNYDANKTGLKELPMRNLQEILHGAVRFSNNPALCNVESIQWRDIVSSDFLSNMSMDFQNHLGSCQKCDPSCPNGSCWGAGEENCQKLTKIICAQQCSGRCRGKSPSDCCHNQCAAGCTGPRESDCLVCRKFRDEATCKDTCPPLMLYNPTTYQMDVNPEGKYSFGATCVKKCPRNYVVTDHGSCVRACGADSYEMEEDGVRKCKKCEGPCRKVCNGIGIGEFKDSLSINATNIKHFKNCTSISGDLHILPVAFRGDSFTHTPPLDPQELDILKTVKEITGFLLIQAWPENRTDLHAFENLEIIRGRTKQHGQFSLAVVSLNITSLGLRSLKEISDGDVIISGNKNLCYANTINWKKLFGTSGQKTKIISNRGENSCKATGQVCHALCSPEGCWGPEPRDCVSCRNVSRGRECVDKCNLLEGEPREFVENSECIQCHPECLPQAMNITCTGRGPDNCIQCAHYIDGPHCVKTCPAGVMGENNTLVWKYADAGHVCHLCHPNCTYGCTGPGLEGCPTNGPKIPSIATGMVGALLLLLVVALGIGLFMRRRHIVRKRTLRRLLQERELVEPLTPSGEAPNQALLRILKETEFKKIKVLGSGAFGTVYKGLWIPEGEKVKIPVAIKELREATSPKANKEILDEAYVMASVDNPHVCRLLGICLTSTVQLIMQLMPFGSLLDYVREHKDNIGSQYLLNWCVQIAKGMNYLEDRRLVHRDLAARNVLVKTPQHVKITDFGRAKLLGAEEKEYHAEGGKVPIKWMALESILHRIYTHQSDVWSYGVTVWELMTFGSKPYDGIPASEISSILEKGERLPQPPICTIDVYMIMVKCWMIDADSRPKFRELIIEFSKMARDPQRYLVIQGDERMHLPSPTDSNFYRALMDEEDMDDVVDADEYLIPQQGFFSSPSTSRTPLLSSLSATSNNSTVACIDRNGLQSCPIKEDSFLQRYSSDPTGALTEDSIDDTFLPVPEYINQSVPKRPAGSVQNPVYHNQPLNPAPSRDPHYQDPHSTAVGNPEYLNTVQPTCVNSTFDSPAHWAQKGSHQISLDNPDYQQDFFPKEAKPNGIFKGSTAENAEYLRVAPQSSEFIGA
EGFR del19/C797S, sequence (P00533 with tags, fused parts or gaps DEL746-750/C797S): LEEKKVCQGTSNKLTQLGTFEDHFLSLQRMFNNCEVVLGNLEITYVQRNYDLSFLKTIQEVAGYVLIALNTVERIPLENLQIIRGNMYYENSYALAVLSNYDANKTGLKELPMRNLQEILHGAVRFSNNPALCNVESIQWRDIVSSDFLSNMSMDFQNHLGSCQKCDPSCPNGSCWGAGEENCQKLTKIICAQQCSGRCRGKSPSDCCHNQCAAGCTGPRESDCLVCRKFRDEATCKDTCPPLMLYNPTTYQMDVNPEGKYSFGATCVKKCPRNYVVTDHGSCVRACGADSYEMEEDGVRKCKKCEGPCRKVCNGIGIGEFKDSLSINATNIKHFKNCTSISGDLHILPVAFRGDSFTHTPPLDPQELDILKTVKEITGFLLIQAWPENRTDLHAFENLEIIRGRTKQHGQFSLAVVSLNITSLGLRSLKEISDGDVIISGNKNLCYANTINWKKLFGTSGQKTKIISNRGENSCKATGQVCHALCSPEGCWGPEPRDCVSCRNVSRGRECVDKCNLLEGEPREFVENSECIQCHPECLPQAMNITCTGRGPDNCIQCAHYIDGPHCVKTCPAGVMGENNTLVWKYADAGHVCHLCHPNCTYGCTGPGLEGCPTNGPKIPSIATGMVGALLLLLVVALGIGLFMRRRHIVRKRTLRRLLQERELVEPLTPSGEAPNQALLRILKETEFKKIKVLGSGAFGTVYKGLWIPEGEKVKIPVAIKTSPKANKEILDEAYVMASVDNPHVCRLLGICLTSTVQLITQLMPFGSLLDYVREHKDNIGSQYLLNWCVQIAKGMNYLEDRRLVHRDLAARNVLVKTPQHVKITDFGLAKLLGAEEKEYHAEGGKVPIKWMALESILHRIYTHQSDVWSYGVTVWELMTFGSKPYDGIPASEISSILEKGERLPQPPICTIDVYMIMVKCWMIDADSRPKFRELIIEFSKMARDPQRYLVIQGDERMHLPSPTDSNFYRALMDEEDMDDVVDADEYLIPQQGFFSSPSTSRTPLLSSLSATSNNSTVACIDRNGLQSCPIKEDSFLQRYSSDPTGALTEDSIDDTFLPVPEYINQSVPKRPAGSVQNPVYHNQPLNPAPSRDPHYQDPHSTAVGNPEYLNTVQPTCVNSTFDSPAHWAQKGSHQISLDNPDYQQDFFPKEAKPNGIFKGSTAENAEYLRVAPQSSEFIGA

Structure (SMILES)	IC50 (EGFR del19/T790M/C797S)	IC50 (EGFR del19/C797S)	IC50 (EGFR wildtype (WT))	IC50 (EGFR L858R/T790M/C797S)	IC50 (EGFR L858R/C797S)
C[C@]1(O)CC[C@@H](Nc2cc(Nc3ccnc(-c4cnn(C(F)F)c4)n3)ncc2-c2ccn(C(F)F)n2)CC1 [Example 149, (1s,4s)-4-((5-(1-(Difluoromethyl)-1H-pyrazol-3-yl)-2-((2-(1-(difluoromethyl)-1H-pyrazol-4-yl)pyrimidin-4-yl)amino)pyridin-4-yl)amino)-1-methylcyclohexan-1-ol]	2.7 nM	144 nM	1730 nM	2.7 nM	47.2 nM
CS(=O)(=O)Cn1cc(-c2nccc(Nc3cc(N[C@H]4CC[C@@](C)(O)CC4)c(-c4ccn(C(F)F)n4)cn3)n2)cn1 [Example 150, (1s,4s)-4-((5-(1-(Difluoromethyl)-1H-pyrazol-3-yl)-2-((2-(1-((methylsulfonyl)methyl)-1H-pyrazol-4-yl)pyrimidin-4-yl)amino)pyridin-4-yl)amino)-1-methylcyclohexan-1-ol]	1.6 nM	21.2 nM	104 nM	1.2 nM	14.7 nM
O=S(=O)(C1CC1)n1cc(-c2nccc(Nc3cc(N[C@H]4CC[C@@H](F)CC4)c(-c4ccn(C(F)F)n4)cn3)n2)cn1 [Example 151, N^2-(2-(1-(Cyclopropylsulfonyl)-1H-pyrazol-4-yl)pyrimidin-4-yl)-5-(1-(difluoromethyl)-1H-pyrazol-3-yl)-N^4-((1s,4s)-4-fluorocyclohexyl)pyridine-2,4-diamine]	1.6 nM	43.5 nM	72 nM	0.9 nM	4.7 nM
Cn1ccc(-c2cnc(Nc3ccnc(-c4cnn(S(=O)(=O)C5CC5)c4)n3)cc2NCC2CCC(C(F)F)CC2)n1 (stereo not drawn) [Example 152, N^2-(2-(1-(Cyclopropylsulfonyl)-1H-pyrazol-4-yl)pyrimidin-4-yl)-N^4-((4-(difluoromethyl)cyclohexyl)methyl)-5-(1-methyl-1H-pyrazol-3-yl)pyridine-2,4-diamine]	8.5 nM	118 nM	85.1 nM	3.5 nM	16.1 nM
O=S(=O)(C1CC1)n1cc(-c2nccc(Nc3cc(NN4CCC(O)CC4)c(-c4ccn(C(F)F)n4)cn3)n2)cn1 [Example 153, 1-((2-((2-(1-(Cyclopropylsulfonyl)-1H-pyrazol-4-yl)pyrimidin-4-yl)amino)-5-(1-(difluoromethyl)-1H-pyrazol-3-yl)pyridin-4-yl)amino)piperidin-4-ol]	0.1 nM	1.3 nM	3.9 nM	0.1 nM	0.1 nM
C[C@]1(O)CC[C@@H](Nc2cc(Nc3ccnc(-c4cnc5c(c4)NCCO5)n3)ncc2-c2ccn(C(F)F)n2)CC1 [Example 154, (1s,4s)-4-((5-(1-(Difluoromethyl)-1H-pyrazol-3-yl)-2-((2-(2,3-dihydro-1H-pyrido[2,3-b][1,4]oxazin-7-yl)pyrimidin-4-yl)amino)pyridin-4-yl)amino)-1-methylcyclohexan-1-ol]	0.3 nM	128 nM	377 nM	0.2 nM	16.2 nM
C[C@]1(O)CC[C@@H](Nc2cc(Nc3ccnc(Nc4ccnn4CC(F)F)n3)ncc2-c2ccn(C(F)F)n2)CC1 [Example 155, (1s,4s)-4-((2-((2-((1-(2,2-Difluoroethyl)-1H-pyrazol-5-yl)amino)pyrimidin-4-yl)amino)-5-(1-(difluoromethyl)-1H-pyrazol-3-yl)pyridin-4-yl)amino)-1-methylcyclohexan-1-ol]	4.2 nM	162 nM	1100 nM	2.8 nM	139 nM
CS(=O)(=O)N1CC=C(c2nccc(Nc3cc(N[C@H]4CC[C@@](C)(O)CC4)c(-c4ccn(C(F)F)n4)cn3)n2)CC1 [Example 156, (1s,4s)-4-((5-(1-(Difluoromethyl)-1H-pyrazol-3-yl)-2-((2-(1-(methylsulfonyl)-1,2,3,6-tetrahydropyridin-4-yl)pyrimidin-4-yl)amino)pyridin-4-yl)amino)-1-methylcyclohexan-1-ol]	35.2 nM	> 10000 nM	986 nM	3.2 nM	339 nM
O=S(=O)(C1CC1)n1cc(-c2nccc(Nc3cc(N[C@H]4CC[C@@H](C(F)F)CC4)c(-c4ccn(C(F)F)n4)cn3)n2)cn1 [Example 157, N^2-(2-(1-(Cyclopropylsulfonyl)-1H-pyrazol-4-yl)pyrimidin-4-yl)-5-(1-(difluoromethyl)-1H-pyrazol-3-yl)-N^4-((1s,4s)-4-(difluoromethyl)cyclohexyl)pyridine-2,4-diamine]	30.9 nM	125 nM	408 nM	9.7 nM	55.7 nM
CS(=O)(=O)N1CCC(c2nccc(Nc3cc(N[C@H]4CC[C@@](C)(O)CC4)c(-c4ccn(C(F)F)n4)cn3)n2)CC1 [Example 158, (1s,4s)-4-((5-(1-(Difluoromethyl)-1H-pyrazol-3-yl)-2-((2-(1-(methylsulfonyl)piperidin-4-yl)pyrimidin-4-yl)amino)pyridin-4-yl)amino)-1-methylcyclohexan-1-ol]	110 nM	6330 nM	635 nM	9.4 nM	450 nM
CC(=O)N1CC=C(c2nccc(Nc3cc(N[C@H]4CC[C@@](C)(O)CC4)c(-c4ccn(C(F)F)n4)cn3)n2)CC1 [Example 159, 1-(4-(4-((5-(1-(Difluoromethyl)-1H-pyrazol-3-yl)-4-(((1s,4s)-4-hydroxy-4-methylcyclohexyl)amino)pyridin-2-yl)amino)pyrimidin-2-yl)-3,6-dihydropyridin-1(2H)-yl)ethan-1-one]	19.2 nM	2050 nM	327 nM	11.7 nM	291 nM
Cn1nc(-c2cnc(Nc3ccnc(-c4cnn(S(=O)(=O)C5CC5)c4)n3)cc2NN2CCC(O)CC2)cc1C(F)(F)F [Example 160, 1-((2-((2-(1-(Cyclopropylsulfonyl)-1H-pyrazol-4-yl)pyrimidin-4-yl)amino)-5-(1-methyl-5-(trifluoromethyl)-1H-pyrazol-3-yl)pyridin-4-yl)amino)piperidin-4-ol]	1 nM	2 nM	8.3 nM	0.5 nM	1 nM
FC(F)Cn1cc(-c2nccc(Nc3cc(N[C@H]4CC[C@@H](F)CC4)c(-c4ccn(C(F)F)n4)cn3)n2)cn1 [Example 161, N^2-(2-(1-(2,2-Difluoroethyl)-1H-pyrazol-4-yl)pyrimidin-4-yl)-5-(1-(difluoromethyl)-1H-pyrazol-3-yl)-N^4-((1s,4s)-4-fluorocyclohexyl)pyridine-2,4-diamine]	3.2 nM	276 nM	640 nM	2.4 nM	60.6 nM
OC1CCN(Nc2cc(Nc3ccnc(-c4cnn(CC(F)F)c4)n3)ncc2-c2ccn(C(F)F)n2)CC1 [Example 162, 1-((2-((2-(1-(2,2-Difluoroethyl)-1H-pyrazol-4-yl)pyrimidin-4-yl)amino)-5-(1-(difluoromethyl)-1H-pyrazol-3-yl)pyridin-4-yl)amino)piperidin-4-ol]	0.9 nM	33.4 nM	271 nM	0.2 nM	275 nM
Cn1nc(-c2cnc(Nc3ccnc(-c4cnn(CC(F)F)c4)n3)cc2NN2CCC(O)CC2)cc1C(F)(F)F [Example 163, 1-((2-((2-(1-(2,2-Difluoroethyl)-1H-pyrazol-4-yl)pyrimidin-4-yl)amino)-5-(1-methyl-5-(trifluoromethyl)-1H-pyrazol-3-yl)pyridin-4-yl)amino)piperidin-4-ol]	1.8 nM	55.3 nM	737 nM	0.9 nM	744 nM
O=S(=O)(C1CC1)n1cc(-c2nccc(Nc3cc(N[C@H]4CC[C@@H](F)CC4)c(-c4nc(C(F)F)cs4)cn3)n2)cn1 [Example 164, N^2-(2-(1-(Cyclopropylsulfonyl)-1H-pyrazol-4-yl)pyrimidin-4-yl)-5-(4-(difluoromethyl)thiazol-2-yl)-N^4-((1s,4s)-4-fluorocyclohexyl)pyridine-2,4-diamine]	8.8 nM	370 nM	1210 nM	4.8 nM	135 nM
COc1ccc(-c2nccc(Nc3cc(N[C@H]4CC[C@@](C)(O)CC4)c(-c4ccn(C(F)F)n4)cn3)n2)cn1 [Example 165, (1s,4s)-4-((5-(1-(Difluoromethyl)-1H-pyrazol-3-yl)-2-((2-(6-methoxypyridin-3-yl)pyrimidin-4-yl)amino)pyridin-4-yl)amino)-1-methylcyclohexan-1-ol]	3 nM	1260 nM	6830 nM	2.3 nM	884 nM
COc1ccc(-c2nccc(Nc3cc(N[C@H]4CC[C@@](C)(O)CC4)c(-c4ccn(C(F)F)n4)cn3)n2)c(F)n1 [Example 166, (1s,4s)-4-((5-(1-(Difluoromethyl)-1H-pyrazol-3-yl)-2-((2-(2-fluoro-6-methoxypyridin-3-yl)pyrimidin-4-yl)amino)pyridin-4-yl)amino)-1-methylcyclohexan-1-ol]	7.2 nM	737 nM	503 nM	3.6 nM	198 nM
